Data taken from ChEMBL document CHEMBL1130883, “Modeling, synthesis and biological activity of novel antifungal agents (1)” (Bioorg Med Chem Lett, 1998).
Values after ≈ are worked out from the molar mass of the structure shown.

Legend:
Candida albicans [1] = assay: Compound was tested in vitro for antifungal activity against Candida albicans (CY3003); format: functional
Aspergillus fumigatus [2] = assay: Compound was tested in vitro for antifungal activity against Aspergillus fumigatus (CF1004); format: functional
Cryptococcus neoformans = assay: Compound was tested in vitro for antifungal activity against Cryptococcus neoformans (CY1057)
[3] = molecular target: Lanosterol 14-alpha demethylase (Candida albicans) (UniProt P10613); assay: In vitro inhibition of cytochrome P450 lanosterol C14 demethylase in Candida albicans CY1005
Sequence of Lanosterol 14-alpha demethylase (Candida albicans) (P10613 whole entry, looked up): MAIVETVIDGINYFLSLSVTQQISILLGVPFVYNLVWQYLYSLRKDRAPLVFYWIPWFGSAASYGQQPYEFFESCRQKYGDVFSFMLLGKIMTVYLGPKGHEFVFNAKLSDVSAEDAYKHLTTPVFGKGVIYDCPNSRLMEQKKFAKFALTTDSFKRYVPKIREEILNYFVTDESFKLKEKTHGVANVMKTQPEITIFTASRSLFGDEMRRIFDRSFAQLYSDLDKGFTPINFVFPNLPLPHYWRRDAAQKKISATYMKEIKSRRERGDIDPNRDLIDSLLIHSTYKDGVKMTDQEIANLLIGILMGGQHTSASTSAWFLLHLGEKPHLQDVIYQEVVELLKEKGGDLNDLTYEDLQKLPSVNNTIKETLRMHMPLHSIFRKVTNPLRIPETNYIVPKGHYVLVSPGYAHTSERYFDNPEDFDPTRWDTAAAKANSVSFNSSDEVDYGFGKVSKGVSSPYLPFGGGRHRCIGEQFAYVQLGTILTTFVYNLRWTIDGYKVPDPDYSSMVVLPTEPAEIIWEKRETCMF

Candida albicans [4] = assay: Compound was tested in vitro for antifungal activity against Cryptococcus neoformans (CY1057) in experiment 2; format: functional
Aspergillus fumigatus [5] = assay: Compound was tested in vitro for antifungal activity against Aspergillus fumigatus (CF1004) in experiment 2; format: functional

SMILES	IC80 (Candida albicans [1])	IC80 (Aspergillus fumigatus [2])	IC80 (Cryptococcus neoformans)	IC50 [3]	IC80 (Candida albicans [4])	IC80 (Aspergillus fumigatus [5])
CCc1ccc(CC[C@@H]2CCC(C)(C)/C(=N/OC)[C@H]2Cn2cncn2)cc1	0.024 µg/mL (≈ 0.0651 µM)	0.064 µg/mL (≈ 0.174 µM)	0.48 µg/mL (≈ 1.3 µM)	–	–	–
CO/N=C1\[C@@H](Cn2cncn2)[C@H](COc2ccc(OC(F)(F)F)cc2)CCC1(C)C	0.12 µg/mL (≈ 0.281 µM)	0.4 µg/mL (≈ 0.938 µM)	7.6 µg/mL (≈ 17.8 µM)	–	–	–
CC1(C)CC[C@@H](COc2ccc(OC(F)(F)F)cc2)[C@H](Cn2cncn2)/C1=N\O	0.35 µg/mL (≈ 0.849 µM)	0.17 µg/mL (≈ 0.412 µM)	> 200 µg/mL	–	–	–
COC1[C@@H](Cn2cncn2)[C@H](COc2ccc(OC(F)(F)F)cc2)CCC1(C)C (stereo partly specified)	0.18 µg/mL (≈ 0.435 µM)	56 µg/mL (≈ 135 µM)	0.51 µg/mL (≈ 1.23 µM)	–	–	–
CC1(C)CC[C@@H](COc2ccc(OC(F)(F)F)cc2)[C@H](Cn2cncn2)C1OCCO (stereo partly specified)	0.39 µg/mL (≈ 0.879 µM)	110 µg/mL (≈ 248 µM)	5.2 µg/mL (≈ 11.7 µM)	–	–	–
CC(=O)c1ccc(CC[C@@H]2CCC(C)(C)/C(=N/O)[C@H]2Cn2cncn2)cc1	> 200 µg/mL	60 µg/mL (≈ 163 µM)	> 200 µg/mL	–	–	–
CCc1ccc(CC[C@@H]2CCC(C)(C)C(OCCO)[C@H]2Cn2cncn2)cc1 (stereo partly specified)	0.00086 µg/mL (≈ 0.00223 µM)	> 200 µg/mL	0.36 µg/mL (≈ 0.934 µM)	–	–	–
CCc1ccc(CC[C@@H]2CCC(C)(C)/C(=N/O)[C@H]2Cn2cncn2)cc1	0.023 µg/mL (≈ 0.0649 µM)	0.0011 µg/mL (≈ 0.0031 µM)	130 µg/mL (≈ 367 µM)	–	–	–
CC(O)c1ccc(CC[C@@H]2CCC(C)(C)/C(=N/O)[C@H]2Cn2cncn2)cc1 (stereo partly specified)	> 200 µg/mL	21 µg/mL (≈ 56.7 µM)	> 200 µg/mL	–	–	–
CCc1ccc(CC[C@@H]2CCC(C)(C)[C@H](OC)[C@H]2Cn2cncn2)cc1	0.0042 µg/mL (≈ 0.0118 µM)	> 200 µg/mL	0.74 µg/mL (≈ 2.08 µM)	0.01 µg/mL (≈ 0.0281 µM)	–	–
OC(Cn1cncn1)(Cn1cncn1)c1ccc(F)cc1F [FLUCONAZOLE]	1.3 µg/mL (≈ 4.24 µM)	150 µg/mL (≈ 490 µM)	6.2 µg/mL (≈ 20.2 µM)	–	2.6 µg/mL (≈ 8.49 µM)	> 200 µg/mL
